Molecular target: T1, purified human HDAC6 (Homo sapiens, UniProt Q9UBN7)
T1 construct: purchased BPS Bioscience 5006
T1 sequence (Q9UBN7 1-1215): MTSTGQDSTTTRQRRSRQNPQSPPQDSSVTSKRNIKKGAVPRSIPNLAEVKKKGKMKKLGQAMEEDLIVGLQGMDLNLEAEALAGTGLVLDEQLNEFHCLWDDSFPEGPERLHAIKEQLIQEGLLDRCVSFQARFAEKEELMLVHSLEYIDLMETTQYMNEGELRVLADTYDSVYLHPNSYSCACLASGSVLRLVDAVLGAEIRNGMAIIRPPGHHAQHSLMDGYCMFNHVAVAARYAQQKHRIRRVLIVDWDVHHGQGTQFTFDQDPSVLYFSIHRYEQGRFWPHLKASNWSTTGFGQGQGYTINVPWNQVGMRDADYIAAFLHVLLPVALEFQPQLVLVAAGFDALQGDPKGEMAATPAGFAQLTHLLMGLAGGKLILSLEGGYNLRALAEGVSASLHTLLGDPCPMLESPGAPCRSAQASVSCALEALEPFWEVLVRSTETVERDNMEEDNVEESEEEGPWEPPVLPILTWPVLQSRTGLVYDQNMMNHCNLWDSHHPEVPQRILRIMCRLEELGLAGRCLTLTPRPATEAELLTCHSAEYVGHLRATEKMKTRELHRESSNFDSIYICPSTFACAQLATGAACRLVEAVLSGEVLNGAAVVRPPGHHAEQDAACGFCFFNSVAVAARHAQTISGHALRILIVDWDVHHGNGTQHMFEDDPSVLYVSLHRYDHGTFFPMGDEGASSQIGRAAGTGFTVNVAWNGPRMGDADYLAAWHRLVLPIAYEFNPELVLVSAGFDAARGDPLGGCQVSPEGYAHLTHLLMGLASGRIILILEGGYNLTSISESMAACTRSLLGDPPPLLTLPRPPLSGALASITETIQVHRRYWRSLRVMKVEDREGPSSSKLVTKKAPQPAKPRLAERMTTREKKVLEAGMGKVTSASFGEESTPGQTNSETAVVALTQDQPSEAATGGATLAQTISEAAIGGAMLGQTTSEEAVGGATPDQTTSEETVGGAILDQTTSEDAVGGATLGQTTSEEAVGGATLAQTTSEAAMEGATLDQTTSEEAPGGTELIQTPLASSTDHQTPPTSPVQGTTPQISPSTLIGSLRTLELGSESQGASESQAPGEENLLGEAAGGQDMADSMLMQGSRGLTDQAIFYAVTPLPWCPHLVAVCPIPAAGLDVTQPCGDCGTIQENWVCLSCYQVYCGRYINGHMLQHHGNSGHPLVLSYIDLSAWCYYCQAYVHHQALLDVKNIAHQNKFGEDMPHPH
Assay: HDAC6 Enzyme Assay
Type: biochemical
Conditions: enzyme inhibition, substrate Ac-Arg-Gly-Lys(Ac)-AMC, 1 hour at 30° C.
Method: To measure the inhibition of HDAC6 activity, purified human HDAC6 (BPS Bioscience; Cat. No. 5006) is incubated with substrate Ac-Arg-Gly-Lys(Ac)-AMC peptide (Bachem Biosciences; Cat. No. I-1925) for 1 hour at 30° C. in the presence of test compounds or vehicle DMSO control. The reaction is stopped with the HDAC inhibitor trichostatin A (Sigma; Cat. No. T8552) and the amount of Arg-Gly-Lys-AMC generated is quantitated by digestion with trypsin (Sigma; Cat. No. T1426) and subsequent measurement of the amount of AMC released using a fluorescent plate reader (Pherastar; BMG Technologies) set at Ex 340 nm and Em 460 nm. Concentration response curves are generated by calculating the fluorescence increase in test compound-treated samples relative to DMSO-treated controls, and enzyme inhibition (IC50) values are determined from those curves.

| SMILES | IC50 [nM] |
| --- | --- |
| Cn1cccc1C(=O)N1CCc2cc(C(=O)NO)sc2C1 [Compound 116, N-hydroxy-6-[(1-methyl-1H-pyrrol-2-yl)carbonyl]-4,5,6,7-tetrahydrothieno[2,3-c]pyridine-2-carboxamide] | < 50 |
| Cc1cc(C)n(CC(=O)N2CCc3cc(C(=O)NO)sc3C2)n1 [Compound 125, 6-(2-(3,5-dimethyl-1H-pyrazol-1-yl)acetyl)-N-hydroxy-4,5,6,7-tetrahydrothieno[2,3-c]pyridine-2-carboxamide] | 50 to 100 |
| O=C(NO)c1cc2c(s1)CN(C(=O)c1cnn(-c3ccccc3)c1)CC2 [Compound 127, N-hydroxy-6-[(1-phenyl-1H-pyrazol-4-yl)carbonyl]-4,5,6,7-tetrahydrothieno[2,3-c]pyridine-2-carboxamide] | < 50 |
| O=C(NO)c1cc2c(s1)CN(C(=O)c1cc(F)cc(F)c1)CC2 [Compound 140, 6-(3,5-difluorobenzoyl)-N-hydroxy-4,5,6,7-tetrahydrothieno[2,3-c]pyridine-2-carboxamide] | < 50 |
| Cc1nc(-c2ccccc2)ncc1C(=O)N1CCc2cc(C(=O)NO)sc2C1 [Compound 152, N-hydroxy-6-[(4-methyl-2-phenylpyrimidin-5-yl)carbonyl]-4,5,6,7-tetrahydrothieno[2,3-c]pyridine-2-carboxamide] | < 50 |
| O=C(NO)c1cc2c(s1)CN(C(=O)c1c(F)c(F)cc(F)c1F)CC2 [Compound 156, N-hydroxy-6-(2,3,5,6-tetrafluorobenzoyl)-4,5,6,7-tetrahydrothieno[2,3-c]pyridine-2-carboxamide] | < 50 |
| O=C(NO)c1cc2c(s1)CN(C(=O)Nc1ccc(I)cc1)CC2 [Compound 163, N^2-hydroxy-N^6-(4-iodophenyl)-4,7-dihydrothieno[2,3-c]pyridine-2,6(5H)-dicarboxamide] | < 50 |
| CCCCc1ccc(NC(=O)N2CCc3cc(C(=O)NO)sc3C2)cc1 [Compound 169, N^6-(4-butylphenyl)-N^2-hydroxy-4,7-dihydrothieno[2,3-c]pyridine-2,6(5H)-dicarboxamide] | < 50 |
| Cc1onc(-c2ccc(F)cc2)c1C(=O)N1CCc2cc(C(=O)NO)sc2C1 [Compound 184, 6-{[3-(4-fluorophenyl)-5-methylisoxazol-4-yl]carbonyl}-N-hydroxy-4,5,6,7-tetrahydrothieno[2,3-c]pyridine-2-carboxamide] | < 50 |
| CC(C)(C)c1ccc(CC(=O)N2CCc3cc(C(=O)NO)sc3C2)cc1 [Compound 188, 6-[(4-tert-butylphenyl)acetyl]-N-hydroxy-4,5,6,7-tetrahydrothieno[2,3-c]pyridine-2-carboxamide] | < 50 |
| CC(C)(C)c1ccc(C(=O)N2Cc3cc(C(=O)NO)sc3C(C)(C)C2)cc1 [Compound 190, 5-(4-tert-butylbenzoyl)-N-hydroxy-7,7-dimethyl-4,5,6,7-tetrahydrothieno[3,2-c]pyridine-2-carboxamide] | > 1000 |
| CC1(C)CN(C(=O)c2sc3ccccc3c2Cl)Cc2cc(C(=O)NO)sc21 [Compound 192, 5-[(3-chloro-1-benzothien-2-yl)carbonyl]-N-hydroxy-7,7-dimethyl-4,5,6,7-tetrahydrothieno[3,2-c]pyridine-2-carboxamide] | > 1000 |

Further lines, results first:

| IC50 [nM] | SMILES |
| --- | --- |
| < 50 | Cc1onc(-c2ccccc2)c1C(=O)N1CCc2cc(C(=O)NO)sc2C1 [Compound 107, N-hydroxy-6-[(5-methyl-3-phenylisoxazol-4-yl)carbonyl]-4,5,6,7-tetrahydrothieno[2,3-c]pyridine-2-carboxamide] |
| > 1000 | COc1ccc(CN2CCc3cc(C(=O)NO)sc3C2)cc1 [Compound 111, N-hydroxy-6-(4-methoxybenzyl)-4,5,6,7-tetrahydrothieno[2,3-c]pyridine-2-carboxamide] |
| < 50 | CC(=O)Nc1cc(NC(C)=O)cc(C(=O)N2CCc3cc(C(=O)NO)sc3C2)c1 [Compound 131, 6-[3,5-bis(acetylamino)benzoyl]-N-hydroxy-4,5,6,7-tetrahydrothieno[2,3-c]pyridine-2-carboxamide] |
| < 50 | Cc1onc(-c2ccccc2)c1NC(=O)N1CCc2cc(C(=O)NO)sc2C1 [Compound 132, N^2-hydroxy-N^6-(5-methyl-3-phenylisoxazol-4-yl)-4,7-dihydrothieno[2,3-c]pyridine-2,6(5H)-dicarboxamide] |
| < 50 | O=C(NO)c1cc2c(s1)CN(C(=O)c1cccc(-n3cccn3)c1)CC2 [Compound 133, 6-(3-(1H-pyrazol-1-yl)benzoyl)-N-hydroxy-4,5,6,7-tetrahydrothieno[2,3-c]pyridine-2-carboxamide] |
| < 50 | CC(C)c1ccc(NC(=O)N2CCc3cc(C(=O)NO)sc3C2)cc1 [Compound 139, N^2-hydroxy-N^6-(4-isopropylphenyl)-4,7-dihydrothieno[2,3-c]pyridine-2,6(5H)-dicarboxamide] |
| < 50 | O=C(NO)c1cc2c(s1)CN(C(=O)c1cscn1)CC2 [Compound 146, N-hydroxy-6-(1,3-thiazol-4-ylcarbonyl)-4,5,6,7-tetrahydrothieno[2,3-c]pyridine-2-carboxamide] |
| 50 to 100 | CCn1nc(C)cc1C(=O)N1CCc2cc(C(=O)NO)sc2C1 [Compound 149, 6-[(1-ethyl-3-methyl-1H-pyrazol-5-yl)carbonyl]-N-hydroxy-4,5,6,7-tetrahydrothieno[2,3-c]pyridine-2-carboxamide] |
| < 50 | Nc1[nH]ncc1C(=O)N1CCc2cc(C(=O)NO)sc2C1 [Compound 159, 6-[(5-amino-1H-pyrazol-4-yl)carbonyl]-N-hydroxy-4,5,6,7-tetrahydrothieno[2,3-c]pyridine-2-carboxamide] |
| < 50 | O=C(NO)c1cc2c(s1)CN(C(=O)c1ccc(C(F)(F)F)cc1)CC2 [Compound 171, N-hydroxy-6-(4-(trifluoromethyl)benzoyl)-4,5,6,7-tetrahydrothieno[2,3-c]pyridine-2-carboxamide] |
| < 50 | Cc1cc(C)c(NC(=O)N2CCc3cc(C(=O)NO)sc3C2)c(C)c1 [Compound 176, N^2-hydroxy-N^6-mesityl-4,7-dihydrothieno[2,3-c]pyridine-2,6(5H)-dicarboxamide] |
| < 50 | Cc1noc(C)c1C(=O)N1CCc2cc(C(=O)NO)sc2C1 [Compound 177, 6-[(3,5-dimethylisoxazol-4-yl)carbonyl]-N-hydroxy-4,5,6,7-tetrahydrothieno[2,3-c]pyridine-2-carboxamide] |
| 50 to 100 | Cc1cc(C(=O)N2CCc3cc(C(=O)NO)sc3C2)c(C)o1 [Compound 178, 6-(2,5-dimethyl-3-furoyl)-N-hydroxy-4,5,6,7-tetrahydrothieno[2,3-c]pyridine-2-carboxamide] |
| < 50 | O=C(NO)c1cc2c(s1)CN(C(=O)c1ccc3ccccc3n1)CC2 [Compound 179, N-hydroxy-6-(quinolin-2-ylcarbonyl)-4,5,6,7-tetrahydrothieno[2,3-c]pyridine-2-carboxamide] |
| 50 to 100 | O=C(NO)c1cc2c(s1)CN(C(=O)c1ccc(F)cc1)CC2 [Compound 182, 6-(4-fluorobenzoyl)-N-hydroxy-4,5,6,7-tetrahydrothieno[2,3-c]pyridine-2-carboxamide] |
| < 50 | CCc1cc(C(=O)N2CCc3cc(C(=O)NO)sc3C2)n(C)n1 [Compound 186, 6-[(3-ethyl-1-methyl-1H-pyrazol-5-yl)carbonyl]-N-hydroxy-4,5,6,7-tetrahydrothieno[2,3-c]pyridine-2-carboxamide] |
| < 50 | Cc1c(C(=O)N2CCc3cc(C(=O)NO)sc3C2)cnn1-c1ccccc1 [Compound 187, N-hydroxy-6-[(5-methyl-1-phenyl-1H-pyrazol-4-yl)carbonyl]-4,5,6,7-tetrahydrothieno[2,3-c]pyridine-2-carboxamide] |
